Experimental data taken from patent US10358446B2, “Bruton's tyrosine kinase inhibitors” (Zibo Biopolar Changsheng Pharmaceutical Co. Ltd., priority 2015, dated 2019).

Target: BTK (Homo sapiens (Human), UniProt Q06187)
Experiment: Btk kinase assay (HTRF)
Assay type: biochemical
Settings: [ATP]=80 μM, BTK=3.4 nM; read-out: BTK Inhibition
Experimental: Btk kinase activity was determined using a homogenous time resolved fluorescence (HTRF) methodology. Measurements were performed in a reaction volume of 15 μL using 384-well assay plates. Kinase enzyme, inhibitor, ATP and 1 μM peptide substrate were incubated in a reaction buffer compose of Hepes 50 mM (pH7.0), NaN3 0.02%, BSA 0.01%, Orthocanadate 0.1 mM. After one hour, the kinase reaction was quenched by the addition of […] antibody and XL-665 in 1× Detection buffer containing 60 mM EDTA (Cisbio), and the mixture was allowed to incubate for one hour. The HTRF signal was measured on a multimode plate reader (EnVision® Multilabel Reader, Perkin Elmer) with an excitation wavelength (λEx) of 330 nm and detection wavelengths (λEm) of 615 and 665 nrm. Activity was determined by the ratio of the fluorescence at 665 nm to that at 615 nm. For each compound, enzyme activity as measured at various concentrations of compound, Negative control reactions were performed in the absence of inhibitor in two replicates and eight no enzyme controls were used to determine baseline fluorescence levels. IC50s were obtained according to the equation: […] For BTK assay, [ATP]=80 μM, BTK=3.4 nM.

BTK, sequence (Q06187 whole entry, species assumed): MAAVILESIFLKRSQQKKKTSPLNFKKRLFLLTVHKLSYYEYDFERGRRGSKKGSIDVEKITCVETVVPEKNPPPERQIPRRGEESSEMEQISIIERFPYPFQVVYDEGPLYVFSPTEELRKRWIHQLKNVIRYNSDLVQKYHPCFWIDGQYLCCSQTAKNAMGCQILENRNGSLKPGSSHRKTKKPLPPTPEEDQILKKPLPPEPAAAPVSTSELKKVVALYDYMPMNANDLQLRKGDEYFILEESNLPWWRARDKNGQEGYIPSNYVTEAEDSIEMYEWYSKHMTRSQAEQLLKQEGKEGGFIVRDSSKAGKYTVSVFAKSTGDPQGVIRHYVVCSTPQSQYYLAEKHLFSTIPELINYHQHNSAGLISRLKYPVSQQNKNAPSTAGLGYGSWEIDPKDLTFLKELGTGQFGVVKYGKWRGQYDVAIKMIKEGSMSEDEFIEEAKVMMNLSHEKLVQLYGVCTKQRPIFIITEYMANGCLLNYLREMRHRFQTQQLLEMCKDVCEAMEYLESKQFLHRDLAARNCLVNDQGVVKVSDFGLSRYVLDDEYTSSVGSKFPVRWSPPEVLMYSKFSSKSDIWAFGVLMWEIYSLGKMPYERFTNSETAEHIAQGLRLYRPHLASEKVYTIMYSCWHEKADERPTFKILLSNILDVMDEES

| Compound | IC50 [nM] |
| --- | --- |
| C=CC(=O)N1CC[C@@H](n2c(=O)n(-c3ccc(OCc4cccc(C(F)(F)F)c4)cc3)c3cnccc32)C1 [Example 211, (R)-1-(1-acryloylpyrrolidin-3-yl)-3-(4-((3-(trifluoromethyl)benzyl)oxy)phenyl)-1H-imidazo[4,5-c]pyridin-2(3H)-one] | 100 to 1000 |
| C=CC(=O)N1CC[C@@H](n2c(=O)n(-c3ccc(Oc4ccccc4)c(F)c3)c3cnccc32)C1 [Example 95, (R)-1-(1-acryloylpyrrolidin-3-yl)-3-(3-fluoro-4-phenoxyphenyl)-1,3-dihydro-2H-imidazo[4,5-c]pyridin-2-one] | 10 to 100 |
| C=CC(=O)Nc1cccc(-n2c(=O)n(-c3ccc(OCc4cccc(C(F)(F)F)c4)cc3)c3cnccc32)c1 [Example 240, N-(3-(2-oxo-3-(4-((3-(trifluoromethyl)benzyl)oxy)phenyl)-2,3-dihydro-1H-imidazo[4,5-c]pyridin-1-yl)phenyl)acrylamide] | 10 to 100 |
| C=CC(=O)N1CC[C@@H](n2c(=O)n(-c3ccc(Oc4cccc(Cl)c4)cc3)c3cnccc32)C1 [Example 72, (R)-1-(1-acryloylpyrrolidin-3-yl)-3-(4-(3-chlorophenoxy)phenyl)-1H-imidazo[4,5-c]pyridin-2(3H)-one] | 10 to 100 |
| C=CC(=O)N1CC[C@@H](n2c(=O)n(-c3ccc(Oc4ccc(Cl)c(Cl)c4)cc3)c3cnccc32)C1 [Example 37, (R)-1-(1-acryloylpyrrolidin-3-yl)-3-(4-(3,4-dichlorophenoxy)phenyl)-1H-imidazo[4,5-c]pyridin-2(3H)-one] | 100 to 1000 |
| C=CC(=O)Nc1cccc(-n2c(=O)n(-c3ccc(Oc4cccc(F)c4OC)cc3)c3cnccc32)c1 [Example 136, N-(3-(3-(4-(3-fluoro-2-methoxyphenoxy)phenyl)-2-oxo-2,3-dihydro-1H-imidazo[4,5-c]pyridin-1-yl)phenyl)acrylamide] | 10 to 100 |
| C=CC(=O)N1CCC(n2c(=O)n(-c3ccc(Oc4ccncc4)cc3)c3cnccc32)C1 (stereo not drawn) [Example 164, 1-(1-acryloylpyrrolidin-3-yl)-3-(4-(pyridin-4-yloxy)phenyl)-1H-imidazo[4,5-c]pyridin-2(3H)-one] | 1000 to 10000 |
| C=CC(=O)Nc1cccc(-n2c(=O)n(-c3ccc(NC(=O)c4cccc(C)c4)cc3)c3cnccc32)c1 [Example 267, N-(4-(1-(3-acrylamidophenyl)-2-oxo-1H-imidazo[4,5-c]pyridin-3(2H)-yl)phenyl)-3-methylbenzamide] | ≥ 10000 |
| C=CC(=O)N1CCC[C@@H](n2c(=O)n(-c3ccc(Oc4cccc(OC)c4F)cc3)c3cncc(C)c32)C1 [Example 168, (R)-1-(1-acryloylpiperidin-3-yl)-3-(4-(2-fluoro-3-methoxyphenoxy)phenyl)-7-methyl-1H-imidazo[4,5-c]pyridin-2(3H)-one] | ≤ 10 |
| C=CC(=O)Nc1cccc(-n2c(=O)n(-c3cccc(NC(=O)c4ccc(C(C)(C)C)cc4)c3)c3cnccc32)c1 [Example 260, N-(3-(1-(3-acrylamidophenyl)-2-oxo-1H-imidazo[4,5-c]pyridin-3(2H)-yl)phenyl)-4-(tert-butyl)benzamide] | 10 to 100 |
| C=CC(=O)N1CC[C@@H](n2c(=O)n(-c3ccc(OCc4ccc(F)c(F)c4)c(Cl)c3)c3cnccc32)C1 [Example 201, (R)-1-(1-acryloylpyrrolidin-3-yl)-3-(3-chloro-4-((3,4-difluorobenzyl)oxy)phenyl)-1H-imidazo[4,5-c]pyridine-2(3H)-one] | 10 to 100 |
| C=CC(=O)Nc1cccc(-n2c(=O)n(-c3ccc(OCc4cccc(Cl)c4)cc3)c3cnccc32)c1 [Example 230, N-(3-(3-(4-((3-chlorobenzyl)oxy)phenyl)-2-oxo-2,3-dihydro-1H-imidazo[4,5-c]pyridin-1-yl)phenyl)acrylamide] | 10 to 100 |
| C=CC(=O)N1CC[C@@H](n2c(=O)n(-c3ccc(Oc4ccc(Cl)c(Cl)c4)c(Cl)c3)c3cnccc32)C1 [Example 44, (R)-1-(1-acryloylpyrrolidin-3-yl)-3-(3-chloro-4-(3,4-dichlorophenoxy)phenyl)-1H-imidazo[4,5-c]pyridin-2(3H)-one] | 10 to 100 |
| C=CC(=O)N1CC[C@@H](n2c(=O)n(-c3ccc(Oc4ccccc4)cc3)c3c(O)nccc32)C1 [Example 183, (R)-1-(1-acryloylpyrrolidin-3-yl)-4-hydroxy-3-(4-phenoxyphenyl)-1H-imidazo[4,5-c]pyridin-2(3H)-one] | ≥ 10000 |
| C=CC(=O)Nc1cccc(-n2c(=O)n(-c3ccc(OCc4ccc(Cl)c(Cl)c4)cc3)c3cnccc32)c1 [Example 218, N-(3-(3-(4-((3,4-dichlorobenzyl)oxy)phenyl)-2-oxo-2,3-dihydro-1H-imidazo[4,5-c]pyridin-1-yl)phenyl)acrylamide] | 100 to 1000 |
| C=CC(=O)N1CCC[C@@H](n2c(=O)n(-c3ccc(Oc4cccc(F)c4C)cc3)c3cnccc32)C1 [Example 57, (R)-1-(1-acryloylpiperidin-3-yl)-3-(4-(3-fluoro-2-methylphenoxy)phenyl)-1H-imidazo[4,5-c]pyridin-2(3H)-one] | 10 to 100 |
| C=CC(=O)Nc1cccc(-n2c(=O)n(-c3cccc(Oc4cccc(F)c4)c3)c3cnccc32)c1 [Example 75, N-(3-(3-(3-(3-fluorophenoxy)phenyl)-2-oxo-2,3-dihydro-1H-imidazo[4,5-c]pyridin-1-yl)phenyl)acrylamide] | 10 to 100 |
| O=C(O)C1CCCC(n2c(=O)n(-c3ccc(Oc4ccccc4)cc3)c3cnccc32)C1 (stereo not drawn) [Example 193, 3-(2-oxo-3-(4-phenoxyphenyl)-2,3-dihydro-1H-imidazo[4,5-c]pyridin-1-yl)cyclohexanecarboxylic acid] | 1000 to 10000 |
| C=CC(=O)Nc1cccc(-n2c(=O)n(-c3ccc(OCc4cc(F)ccc4F)cc3)c3cnccc32)c1 [Example 220, N-(3-(3-(4-((2,5-difluorobenzyl)oxy)phenyl)-2-oxo-2,3-dihydro-1H-imidazo[4,5-c]pyridin-1-yl)phenyl)acrylamide] | 100 to 1000 |
| C=CC(=O)N1CCC[C@@H](n2c(=O)n(-c3ccc(Oc4cccc(Cl)c4Cl)cc3)c3cnccc32)C1 [Example 100, (R)-1-(1-acryloylpiperidin-3-yl)-3-(4-(2,3-dichlorophenoxy)phenyl)-1,3-dihydro-2H-imidazo[4,5-c]pyridin-2-one] | 10 to 100 |
| C=CC(=O)N1CCCC1Cn1c(=O)n(-c2ccc(Oc3ccccc3)cc2)c2cnccc21 (stereo not drawn) [Example 178, 1-(1-Acryloyl-pyrrolidin-2-ylmethyl)-3-(4-phenoxy-phenyl)-1,3-dihydro-imidazo [4,5-c]pyridin-2-one] | 10 to 100 |
| C=CC(=O)Nc1cccc(-n2c(=O)n(-c3ccc(NC(=O)c4cccc(Cl)c4)cc3)c3cnccc32)c1 [Example 259, N-(4-(1-(3-acrylamidophenyl)-2-oxo-1H-imidazo[4,5-c]pyridin-3(2H)-yl)phenyl)-3-chlorobenzamide] | 100 to 1000 |
| C=CC(=O)Nc1cccc(-n2c(=O)n(-c3ccc(C(=O)Nc4cccc(C(F)(F)F)c4)cc3)c3cnccc32)c1 [Example 251, 4-(1-(3-acrylamidophenyl)-2-oxo-1H-imidazo[4,5-c]pyridin-3(2H)-yl)-N-(3-(trifluoromethyl)phenyl)benzamide] | 1000 to 10000 |
| C=CC(=O)Nc1cccc(-n2c(=O)n(-c3cccc(-c4ccc(C)cc4)c3)c3cnccc32)c1 [Example 272, N-(3-(3-(4′-methyl-[1,1′-biphenyl]-3-yl)-2-oxo-2,3-dihydro-1H-imidazo [4,5-c]pyridin-1-yl)phenyl)acrylamide] | 100 to 1000 |
| C=CC(=O)N1CC[C@@H](n2c(=O)n(-c3ccc(OCc4cccc(C(F)(F)F)c4)c(Cl)c3)c3cnccc32)C1 [Example 200, (R)-1-(1-acryloylpyrrolidin-3-yl)-3-(3-chloro-4-((3-(trifluoromethyl)benzyl)oxy)phenyl)-1H-imidazo[4,5-c]pyridine-2(3H)-one] | 100 to 1000 |
| C=CC(=O)N1CC[C@@H](n2c(=O)n(-c3ccc(Oc4ccccc4C)cc3)c3cnccc32)C1 [Example 83, (R)-1-(1-acryloylpyrrolidin-3-yl)-3-(4-(o-tolyloxy)phenyl)-1H-imidazo[4,5-c]pyridin-2(3H)-one] | 10 to 100 |
| C=CC(=O)N1CC[C@@H](n2c(=O)n(-c3cccc(Oc4cccc(Cl)c4F)c3)c3cnccc32)C1 [Example 97, (R)-1-(1-acryloylpyrrolidin-3-yl)-3-(3-(3-chloro-2-fluorophenoxy)phenyl)-1,3-dihydro-2H-imidazo[4,5-c]pyridin-2-one] | 10 to 100 |
| C=CC(=O)Nc1cccc(-n2c(=O)n(-c3ccc(Oc4cccc(OC)c4)c(F)c3)c3cnccc32)c1 [Example 94, N-(3-(3-(3-fluoro-4-(3-methoxyphenoxy)phenyl)-2-oxo-2,3-dihydro-1H-imidazo[4,5-c]pyridin-1-yl)phenyl)acrylamide] | 10 to 100 |
| C=CC(=O)N1CCC(n2c(=O)n(-c3ccc(Oc4cccc(OC(F)(F)F)c4)cc3)c3cnccc32)C1 (stereo not drawn) [Example 112, 1-(1-acryloylpyrrolidin-3-yl)-3-(4-(3-(trifluoromethoxy)phenoxy)phenyl)-1H-imidazo[4,5-c]pyridin-2(3H)-one] | 10 to 100 |
| C=CC(=O)N1CC[C@@H](n2c(=O)n(-c3ccc(Oc4ccc(OC)c(OC)c4)cc3)c3cnccc32)C1 [Example 40, (R)-1-(1-acryloylpyrrolidin-3-yl)-3-(4-(3,4-dimethoxyphenoxy)phenyl)-1H-imidazo[4,5-c]pyridin-2(3H)-one] | 10 to 100 |
